In US6461997B1, “Triazole sulfones having herbicidal activity” (Monsanto Technology LLC, priority 1999, dated 2002):

Assays:
[1] = tested on: wheat (TRZAW); assay: Selectivity test, PPI, cool season crop; format: in vivo, Triticum aestivum; conditions: PPI application
Description: (§1) A pre-prepared topsoil mixture (described above) was placed in a pot and compacted to a depth of 1.0 to 1.25 cm from the top of the pot. Seeds of each of several monocotyledonous and dicotyledonous annual plant species were placed on top of the soil. A sufficient quantity of soil to cover the seeds and level fill the pot was weighed into an open container. A known amount of the test compound was dissolved or suspended in an organic solvent and applied by spraying to this cover soil. The cover soil was thoroughly mixed to distribute the test compound throughout the cover soil, and was then applied as a cover layer over the seeds. Untreated soil was used as a cover layer for control pots. After treatment the plants were placed in a greenhouse where they received 0.64 cm of overhead irrigation. All subsequent watering consisted of a light overhead mist and/or subirrigation as needed for germination and growth. Tables 9 and 10 below relate to warm season plant species which were placed after pre-emergence treatment in a greenhouse with a 30/21° C. day/night temperature regime. Tables 11 and 12 below relates to cool season plant species placed after pre-emergence treatment in a greenhouse or growth chamber with an 18/13° C. day/night temperature regime. Only the compounds of Examples 1, 6, 8, 11, 13 and 15-20 were included in PPI tests.
(§2) Approximately 14 days after planting and treating, the plants were observed and herbicidal efficacy recorded as percent inhibition by comparison with untreated plants.
Additional pre-emergence and PPI tests were conducted by the procedures described above, on warm and cool season weed species in the presence of crop species, to assess herbicidal selectivity. Crop species included in warm season tests were corn (Zea mays, ZEAMX), rice (Oryza sativa, ORYSA) and soybean (Glycine max, GLYMX). Crop species included in cool season tests were wheat (Triticum aestivum, TRZAW), barley (Hordeunm vulgare, HORVX) and oilseed rape (Brassica napus, BRSNS).
Tables 15 and 16 relate to pre-emergence and PPI tests respectively on warm season species. Table 17 relates to pre-emergence tests on cool season species.

[2] = tested on: AMARE (redroot pigweed); assay: Pre-emergence herbicidal activity, warm season; format: in vivo, Amaranthus retroflexus; conditions: GR80 = lowest tested rate (300, 100, 30, 10 g/ha) with 80% or greater inhibition; approx. 14 days after treating; 30/21° C.
Summary of the method: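 GR80 values derive from percent inhibition relative to untreated plants, read roughly 14 days after sowing and pre-emergence soil-surface treatment (compound in 50:50 acetone/water; rates typically 10, 30, 100, 300 g/ha). Warm-season weeds grew at 30/21° C day/night, cool-season ones at 18/13° C; an asterisk marks activity without reaching 80% at the highest rate.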

[3] = tested on: CHEAL (common lambsquarters); assay: Pre-plant incorporated (PPI) herbicidal activity, warm season; format: in vivo, Chenopodium album; conditions: for Percent inhibition CHEAL: PPI application
Description: (§3) In another set of tests, the pre-plant incorporated (PPI) activity of compounds of this invention was evaluated on the same species as for the pre-emergence tests described above. In the PPI tests the following procedure, designed to simulate PPI application, was used.
as §1, §2

[4] = tested on: BRAPP (broadleaf signalgrass); assay: as above; format: in vivo, Brachiaria platyphylla; conditions: for Percent inhibition BRAPP: PPI application
Description: as §3, §1, §2

[5] = tested on: SINAR (wild mustard); assay: Pre-plant incorporated (PPI) herbicidal activity, cool season; format: in vivo, Sinapis arvensis; conditions: for Percent inhibition SINAR: weed, PPI application
Description: as §3, §1, §2

[6] = tested on: PANMI (wild proso millet); assay: Pre-plant incorporated (PPI) herbicidal activity, warm season; format: in vivo, Panicum miliaceum; conditions: for Percent inhibition PANMI: PPI application
Description: as §3, §1, §2

[7] = tested on: SETFA (giant foxtail); assay: as above; format: in vivo, Setaria faberi; conditions: for Percent inhibition SETFA: PPI application
Description: as §3, §1, §2

[8] = tested on: AGRRE (quackgrass (seedling)); assay: Pre-plant incorporated (PPI) herbicidal activity, cool season; format: in vivo, Elymus repens; conditions: for Percent inhibition AGRRE: weed, PPI application
Description: as §3, §1, §2

[9] = tested on: SORVU (shattercane); assay: Pre-emergence herbicidal activity, warm season; format: in vivo, Sorghum vulgare; conditions: GR80 = lowest tested rate (300, 100, 30, 10 g/ha) with 80% or greater inhibition; approx. 14 days after treating; 30/21° C.
Summary of the method: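 Activity is expressed as the rate giving 80% inhibition, with 300, 100, 30 and 10 g/ha typically tested. An asterisk marks activity short of 80% at the top rate. Warm-season grasses were held at 30/21 °C; cool-season blackgrass and wild buckwheat at 18/13 °C; scoring at about 14 days.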

[10] = pre-plant incorporated, lowest tested rate with 80% or greater inhibition, about 14 days

CCN(CC)C(=O)n1cnc(S(=O)(=O)C(F)(F)SCC(=O)OC)n1 [Example 11]
Percent inhibition TRZAW ([1]; 10 g/ha): 0% | Percent inhibition TRZAW ([1]; 30 g/ha): 0% | Percent inhibition TRZAW ([1]; 100 g/ha): 0% | Percent inhibition TRZAW ([1]; 300 g/ha): 0% | Percent inhibition TRZAW ([1]; 900 g/ha): 20% | Pre-emergence activity (GR80) AMARE [2]: 100 g/ha | Percent inhibition CHEAL ([3]; 10 g/ha): 30% | Percent inhibition CHEAL ([3]; 30 g/ha): 60% | Percent inhibition CHEAL ([3]; 100 g/ha): 60% | Percent inhibition CHEAL ([3]; 300 g/ha): 100% | Percent inhibition CHEAL ([3]; 900 g/ha): 100% | PPI activity (GR80) CHEAL ([3]; pre-plant incorporated, GR80 = lowest tested rate with 80% or greater inhibition, approx. 14 days after treating, 30/21° C.): 100 g/ha | Percent inhibition BRAPP ([4]; 10 g/ha): 0% | Percent inhibition BRAPP ([4]; 30 g/ha): 0% | Percent inhibition BRAPP ([4]; 100 g/ha): 60% | Percent inhibition BRAPP ([4]; 300 g/ha): 100% | Percent inhibition BRAPP ([4]; 900 g/ha): 100% | PPI activity GR80, BRAPP [4, 10]: 300 g/ha | PPI activity GR80, SINAR [5, 10]: 100 g/ha | Percent inhibition SINAR ([5]; 10 g/ha): 0% | Percent inhibition SINAR ([5]; 30 g/ha): 0% | Percent inhibition SINAR ([5]; 100 g/ha): 0% | Percent inhibition SINAR ([5]; 300 g/ha): 0% | Percent inhibition SINAR ([5]; 900 g/ha): 99% | Percent inhibition PANMI ([6]; 30 g/ha): 0% | Percent inhibition PANMI ([6]; 100 g/ha): 20% | Percent inhibition PANMI ([6]; 300 g/ha): 80% | Percent inhibition PANMI ([6]; 900 g/ha): 100% | PPI activity GR80, PANMI [6, 10]: * (activity observed, at least at highest rate, but <80% inhibition) | Percent inhibition SETFA ([7]; 10 g/ha): 0% | Percent inhibition SETFA ([7]; 30 g/ha): 0% | Percent inhibition SETFA ([7]; 100 g/ha): 90% | Percent inhibition SETFA ([7]; 300 g/ha): 60% | Percent inhibition SETFA ([7]; 900 g/ha): 100% | PPI activity GR80, SETFA [7, 10]: 300 g/ha | PPI activity GR80, AGRRE [8, 10]: * (activity observed, at least at highest rate, but <80% inhibition) | Percent inhibition AGRRE ([8]; 10 g/ha): 0% | Percent inhibition AGRRE ([8]; 30 g/ha): 0% | Percent inhibition AGRRE ([8]; 100 g/ha): 0% | Percent inhibition AGRRE ([8]; 300 g/ha): 0% | Percent inhibition AGRRE ([8]; 900 g/ha): 0% | Pre-emergence activity (GR80) SORVU [9]: * (activity observed, at least at highest rate, but <80% inhibition)
